The values below come from US8877932B2, “Anhydrous lenalidomide form-I” (Natco Pharma Limited, priority 2010, dated 2014).

The nature of data set [1]: Intrinsic dissolution (Woods apparatus). It counts as physicochemical. To be noted: HCl buffer, pH 1.8, 1% sodium lauryl sulfate, 37° C., 50 rpm. The procedure:
Dissolution experiments were carried out in a ELECTROLAB-8 dissolution apparatus equipped with a ETC-112 temperature controller. An intrinsic dissolution apparatus (Woods apparatus) was used. Samples were compressed at 2.0 metric tons for 1 min in KBr hydraulic press, giving a sample surface of 0.50 cm^2. A dissolution medium consisting of 900 mL HCl buffer, pH 1.8, with 1% sodium lauryl sulfate, was used for each experiment. The medium was degassed by vacuum filtration through a 0.45-μm nylon filter disk and maintained at 37° C. The apparatus was rotated at 50 rpm for each experiment. Aliquots were filtered immediately using 0.45-μm nylon syringe filters. In some cases, the undissolved solids were recovered and analyzed by X-ray powder diffraction (XRPD).
(§1) Both the solubility and dissolution experiments were conducted in a medium of HCl buffer, pH 1.8, containing 1% sodium lauryl sulfate. The solubilities were estimated to be 3.15 mg/ml for Form 1 & 3.28 mg/ml for Form B, respectively.

The nature of data set [2]: Moisture content of prepared Form-I samples. Format: physicochemical. To be noted: samples as prepared.
Data set [3] in a line: Thermal stability of Lenalidomide Form I. Format: physicochemical. The following applies: heating at 95 to 105° C. for 7 days. The procedure: The lenalidomide Form I obtained after drying temperature 65 to 75° C. under vacuum is taken subjected to heating at 95 to 105° C. in oil bath, kept in rotator vapor for 7 days, cool to room temperature and the sample is analyzed per IR, NMR, XRPD (X-ray powder diffractometry), DSC (differential scanning calorimetry) & TGA (thermogravimetry). […] The moisture content is also determined for sample and found to be less than 1%.

Data set [4] can be described thus: Accelerated stability studies. It counts as physicochemical. The procedure:
The lenalidomide Form I sample are subjected to accelerated stability studies under following conditions & analyzed at initial after 1, 2, 3 and 6 months. • Condition 1—temperature: 40° C.±2° C. • Relative humidity: 75% RH±5% • Condition 1—temperature: 30° C.±2° C. • Relative humidity: 65% RH±5%
We have not observed major deviation in quality of samples analysed of initial samples after 1,2, 3 and 6 months.
No increase in impurity profile is observed in 1,2, 3 and 6 months sample.

Data set [5] in a line: Storage stability at room temperature. It counts as physicochemical. To be noted: more than a year at room temperature (25-35° C.). The procedure: The thus obtained anhydrous novel form is very stable at room temperature (25-35° C.) and is not absorbing water or converting to any reported hydrated forms.
Data set [6] in a line: Bulk density. It counts as physicochemical. The text has this:
Batch No—0812/006 • Untapped Density—0.286 g/ml • Tapped density—0.481 g/ml • III. Batch No—0812/006 • Untapped Density—0.286 g/ml • Tapped density—0.481 g/ml

A short description of data set [7]: Encapsulated Form I compared with […] capsules (XRPD, moisture content). Format: physicochemical. The text has this: The sample of lenalidomide Form I API is encapsulated & compared with the […] capsules.
The nature of data set [8]: Humidity test. Format: physicochemical. The procedure: The anhydrous form of lenalidomide along with two batches (0812/006 & 0812/007 &) were subjected for humidity test.
NaBr, NH4Cl, KOH, Na2HPO4 were used as Saturated solution at temperature 25.1° C., 25° C., 24.7° C., 26.8° C. and humidity 84%, 79%, 23%, 93% respectively at initial water content of 0.08%.

Data set [9] in a line: Equilibrium solubility. The following applies: pH 1.8, 1% sodium lauryl sulfate. It counts as physicochemical. The procedure: A solid sample of 450 mg was stirred in 50 mL of dissolution medium (HCl buffer, pH 1.8, with 1% sodium lauryl sulfate) using a mechanical stir rod. Aliquots were filtered and centrifuged at 3500 rpm using 0.2-μm nylon syringe filters and immediately diluted 1 mL→50 mL, then 5 mL→425 mL with dissolution medium. In some cases, the undissolved solids were recovered and sent for X-ray powder diffraction (XPRD) studies.
as §1

For data set [10] the following is noted: reported in US 2005/0096351 A1; cited from earlier work.
Where [11] appears, read: 40° C./75% RH and 30° C./65% RH, 1, 2, 3 and 6 months.

As a reminder, the solubility is how much of the substance goes into solution per volume.

Values after ≈ are worked out from the molar mass of the structure shown. Where two headings read alike, the source gives them in different places.

In [1], `Nc1cccc2c1CN(C1CCC(=O)NC1=O)C2=O` (centres unmarked) [Form-I, 3-(4-amino-1-oxo-1,3-dihydro-isoindole-2-yl)-piperidine-2,6-dione] had a dissolution rate of 0.421 mg/min/cm^2. Besides, the moisture content result in [2] is reported as “less than 0.1%”. For the same molecule, in [3], the “change in impurity profile” value is “No further change”; the “change in spectral data (IR, NMR, XRPD, DSC, TGA)” value is “No change is observed”; the “moisture content after heating” value is recorded as “less than 1%”. Further, in [4] (setting [11]), the impurity profile entry was “No increase” and the “moisture content after accelerated stability storage” value is recorded as 0.21 % w/w. Besides, the “conversion to hydrated polymorphic form” value in [4] (40° C./75% RH and 30° C./65% RH, up to 6 months) was “not converted in any of the hydrated polymorphic form”. In [4] (before accelerated stability storage), the “moisture content, initial” value was determined as 0.09 % w/w. In addition, the “conversion to hydrated form on storage” value in [5] was “not converted into any hydrated from”. For the same molecule, in data set [6] (listed as 0812/005), the Tapped density came out at 0.465 g/mL and the “Untapped Density” value came to 0.278 g/mL. In [6] (listed as 0812/006), the Tapped density worked out at 0.481 g/mL and the “Untapped Density” value turned out to be 0.286 g/mL. Besides, the “polymorphic form after encapsulation (XRPD)” value in [7] was “not changed even after encapsulation”. For the same molecule, in data set [8] (KOH saturated solution, 24.7° C., humidity 23%), the “water content after humidity test” value was determined as 0.12 % w/w. Besides, the “water content after humidity test” value in data set [8] (NH4Cl saturated solution, 25° C., humidity 79%) was 0.13 % w/w. Moreover, the “water content after humidity test” value in data set [8] (Na2HPO4 saturated solution, 26.8° C., humidity 93%) worked out at 0.10 % w/w. The “water content after humidity test” value in [8] (NaBr saturated solution, 25.1° C., humidity 84%) is given as 0.21 % w/w. The molecule further had an initial water content in [8] (before humidity test) of 0.08%. Also, the solubility in [9] (HCl buffer with 1% sodium lauryl sulfate, 25 °C, pH 1.8, aqueous with cosolvent or surfactant or cyclodextrin, thermodynamic from solid, read-out: solubility) worked out at 3150 µg/mL (≈ 12.1 mM).
Turning to `Nc1cccc2c1CN(C1CCC(=O)NC1=O)C2=O` (centres unmarked) [Form-E, 3-(4-amino-1-oxo-1,3-dihydro-isoindole-2-yl)-piperidine-2,6-dione], the moisture content in data set [10] is listed as 11.9%.
For the molecule `Nc1cccc2c1CN(C1CCC(=O)NC1=O)C2=O` (centres unmarked) [Form A, 3-(4-amino-1-oxo-1,3-dihydro-isoindol-2-yl)-piperidine-2,6-Dione], in [10], the hygroscopicity result is on record as “not hygroscopic”.
The molecule `Nc1cccc2c1CN(C1CCC(=O)NC1=O)C2=O` (centres unmarked) [Form-B, 3-(4-amino-1-oxo-1,3-dihydro-isoindole-2-yl)-piperidine-2,6-dione, reference compound] yielded a dissolution rate in [1] of 0.250 mg/min/cm^2. In addition, the moisture content in data set [10] is recorded as 3.1%. The solubility in data set [9] (HCl buffer, 25° C.) was found to be 3280 µg/mL (≈ 12.7 mM).
